Paper PMC9667936, “Functional mapping of the 14-3-3 hub protein as a guide to design 14-3-3 molecular glues” (Chemical Science, 2022)
Where a SMILES comes first, the peptide text is derived from it.

T1: 14-3-3γ/ChREBP (Homo sapiens, UniProt P61981+Q9NP71)
T1 construct: made in house; host or cells: E. coli NiCo21 (DE3) for 14-3-3 gamma; ChREBP is a synthetic peptide
T1 sequence (P61981 1-247): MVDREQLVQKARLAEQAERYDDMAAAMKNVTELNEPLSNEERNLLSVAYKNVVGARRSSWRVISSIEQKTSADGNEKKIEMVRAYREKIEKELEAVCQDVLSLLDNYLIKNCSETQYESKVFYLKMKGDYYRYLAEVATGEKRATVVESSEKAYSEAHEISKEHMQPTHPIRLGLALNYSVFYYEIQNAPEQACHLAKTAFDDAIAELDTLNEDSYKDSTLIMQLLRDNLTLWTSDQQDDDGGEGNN
T1 sequence (Q9NP71 118-142 partner limits assumed): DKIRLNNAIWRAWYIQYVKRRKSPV

T2: ChREBP peptide (Homo sapiens, UniProt Q9NP71)
T2 chain: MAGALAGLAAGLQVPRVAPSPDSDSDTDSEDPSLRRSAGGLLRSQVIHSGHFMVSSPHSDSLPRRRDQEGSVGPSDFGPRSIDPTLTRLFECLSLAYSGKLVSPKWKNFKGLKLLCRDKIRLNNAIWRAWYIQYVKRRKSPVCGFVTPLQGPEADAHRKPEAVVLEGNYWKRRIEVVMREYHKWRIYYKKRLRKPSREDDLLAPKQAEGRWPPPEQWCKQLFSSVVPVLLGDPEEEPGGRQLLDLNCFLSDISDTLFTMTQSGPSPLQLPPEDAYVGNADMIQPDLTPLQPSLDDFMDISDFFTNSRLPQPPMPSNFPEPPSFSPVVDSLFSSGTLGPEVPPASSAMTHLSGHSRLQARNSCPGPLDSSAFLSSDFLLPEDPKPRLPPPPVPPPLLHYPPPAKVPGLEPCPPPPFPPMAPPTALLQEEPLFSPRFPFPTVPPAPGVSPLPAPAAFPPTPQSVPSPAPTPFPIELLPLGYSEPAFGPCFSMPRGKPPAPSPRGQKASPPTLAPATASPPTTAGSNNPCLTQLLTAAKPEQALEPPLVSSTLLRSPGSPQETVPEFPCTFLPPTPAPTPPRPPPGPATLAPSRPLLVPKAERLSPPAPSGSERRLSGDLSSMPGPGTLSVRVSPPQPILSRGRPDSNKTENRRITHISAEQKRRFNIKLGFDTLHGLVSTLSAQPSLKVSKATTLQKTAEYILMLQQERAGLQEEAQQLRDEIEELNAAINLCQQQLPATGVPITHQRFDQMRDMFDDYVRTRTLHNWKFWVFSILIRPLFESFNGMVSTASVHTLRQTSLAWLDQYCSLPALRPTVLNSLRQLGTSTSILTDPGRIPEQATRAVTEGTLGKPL


Columns and labels:
[1] = target: T1, 14-3-3γ/ChREBP; experiment: 2D FA titration of 14-3-3/ChREBP and cooperativity analysis with thermodynamic equilibrium model; assay type: binding; conditions: determined by the thermodynamic model from 2D FA titrations; 95% confidence interval; read-out: apparent binding affinity of ChREBP for 14-3-3 (K^IID)
Protocol: a four-parameter logistic model (4PL). Each measurement was performed in two independent […]
Fluorescence anisotropy (FA) - 2D-14-3-3/ChREBP titrations: 14-3-3γ was titrated in a 2-fold dilution series (starting at 300 µM 14-3-3γ) to 20 nM of fluorescein-labeled peptide 2d in FA buffer (10 mM HEPES pH 7.4, 150 mM NaCl, 0.1% (v/v) Tween20, 0.1% (w/v) BSA) in presence of 2-fold dilution series of unlabeled ChREBP peptide (0.01-10 µM). Dilution series were made in a polystyrene (non-binding) low-volume Corning Black Round Bottom 384-well plates (Corning 4514 or 4511). Measurements were performed directly after plate preparation, using a Tecan Infinite F500 plate reader at room temperature (lex: 485 ± 20 nm; lem: 535 ± 25 nm; mirror: Dichroic 510; flashes: 20; integration time: 50 ms; settle time:
0 ms; gain: optimal; and Z-position: calculated from well). Wells containing only FITC-peptide were used to set as G-factor at 35 mP. All data were analyzed using GraphPad Prism (7.00) for Windows and fitted using a four-parameter logistic model (4PL). […]
with R = 14-3-3, P = non-natural peptide (labelled), and C = ChREBP. The framework determined based on this system description the equilibrium equations needed to determine KDII and α. […] From this the model determined the KDII and α (with 95% confidence interval) and the error-landscape of the determine parameters. […]

[2] = target: T2, ChREBP peptide; experiment: 2D fluorescence anisotropy titration, thermodynamic equilibrium model fit

Row | Kd [1] [nM] | Kd [2] [nM] | Molecule
1 | 1600 |  | CC[C@H](C)[C@H](NC(=O)[C@H](C)NC(=O)[C@H](CC(N)=O)NC(=O)[C@H](CC(N)=O)NC(=O)[C@H](CC(C)C)NC(=O)[C@H](CCCNC(=N)N)NC(=O)[C@@H](NC(=O)[C@H](CCCCN)NC(=O)[C@H](CC(=O)O)NC(C)=O)[C@@H](C)CC)C(=O)N[C@@H](Cc1c[nH]c2ccccc12)C(=O)N[C@@H](CCCNC(=N)N)C(=O)N[C@@H](C)C(=O)N[C@@H](Cc1c[nH]c2ccccc12)C(=O)N[C@@H](Cc1ccc(O)cc1)C(=O)N[C@H](C(=O)N[C@@H](CCC(N)=O)C(=O)N[C@@H](Cc1ccc(O)cc1)C(=O)N[C@H](C(=O)N[C@@H](CCCCN)C(=O)N[C@@H](CCCNC(=N)N)C(=O)N[C@@H](CCCNC(=N)N)C(=O)N[C@@H](CCCCN)C(=O)N[C@@H](CO)C(=O)N1CCC[C@H]1C(=O)N[C@H](C(N)=O)C(C)C)C(C)C)[C@@H](C)CC [ChREBP, reference compound] (Ac-DKIRLNNAIWRAWYIQYVKRRKSPV-NH2)
2 |  | 1600 | 14-3-3γ (protein) VDREQLVQKARLAEQAERYDDMAAAMKNVTELNEPLSNEERNLLSVAYKNVVGARRSSWRVISSIEQKTSADGNEKKIEMVRAYREKIEKELEAVCQDVLSLLDNYLIKNCSETQYESKVFYLKMKGDYYRYLAEVATGEKRATVVESSEKAYSEAHEISKEHMQPTHPIRLGLALNYSVFYYEIQNAPEQACHLAKTAFDDAIAELDTLNEDSYKDSTLIMQLLRDNLTLWTSDQQDDDGGEGNN
